How the values were obtained:
[1] = test system: TNK1 and STAT5 phosphorylation in L540 tumor tissue; assay: In vivo single dose PD study, L540 xenograft, Western blot; parameters: species or system mouse; conditions: L540 tumor samples, 50 mg/kg
Method: The objective of this study was to assess in vivo pharmacodynamic activity of Example No. 13 in a subcutaneous xenograft model of Hodgkin's lymphoma in female NOD SCID mice, aged 6-8 weeks. There were 4 groups (and a total of 84 mice): Example No. 13 at 50 mg/kg, 25 mg/kg, or 10 mg/kg (n=27 mice for each dose), and vehicle (n=3 mice). When the average tumor volume reached 300 mm^3, animals were randomized and dosed once p.o. at a 10 mL/kg dose volume. Blood and tumors were collected at nine different time points.
Example No. 13 was formulated in Tween 80 (0.2 mL), ethanol (1 mL), PEG400 (3 mL), and water (5.8 mL).
In this study, protein expression was analyzed by Western blotting method. Tissue samples were acquired as part of a single dose PK/PD study. Equal amounts of tumor were placed into a bead tube, lysis buffer (RIPA buffer (Sigma No. 0278), Halt CocktaiL (ThermoFisher No. 78440), EDTA (ThermoFisher No. 1861274), PhosSTOP (Sigma No. 04906845001), cOmplete (Sigma No. 11697498001) and Inhibitor Cocktail 3 (Sigma No. P0044-1ML)) was added, and samples were homogenized using bead homogenizer (2×20 s at 4.5 m/s (Fisherbrand Bead Mill 24 Homogenizer, Fisher Scientific)). […]
Protein concentration was determined using BCA kit (Invitrogen No. 23225). Equal amounts of protein were pooled from each treatment group, and concentration was measured again in the pooled samples. […]

A549 cells = assay: Combination with bortezomib, A549 cell confluency (Incucyte); assay type: cell-based; conditions: Example No. 13 10 nM + Bortezomib 1 nM, over 200 hours
Method: A549 cells were seeded in log phase (e.g., at 40-60% confluency) in a well plate. Drug treatments were: no drug treatment, DMSO, bortezomib at 50 nM, 10 nM, 5 nM, 2 nM or 1 nM, Example No. 13 at 10 nM, and bortezomib 50 nM, 10 nM, 5 nM, 2 nM or 1 nM combined with Example No. 13 at 10 nM. The DMSO concentrations were kept constant (including DMSO control) to control for any confounding DMSO toxicity.
Drug addition protocol: On day 1, cells were seeded at 60,000 cells/well, and incubated for 24 hours to allow adherence. On day 2, media was aspirated and replaced with 500 μl of the drug media preparations described below in correlating wells. The plates were placed in Incucyte for 7-14 days, and cell confluency was measured every 2 hours. […]

With `COc1cc(N2CCN(C)CC2)c(Cl)cc1Nc1ncc(Cl)c(Nc2cccnc2N2CCCC2=O)n1` [Example No. 13, 1-(3-((5-chloro-2-((5-chloro-2-methoxy-4-(4-methylpiperazin-1-yl)phenyl)amino)pyrimidin-4-yl)amino)pyridin-2-yl)pyrrolidin-2-one] the “earliest time at which inhibition of STAT5 phosphorylation was observed after dosing” value [1] was 15 to 30 min and the “cell growth inhibition, combination” value (A549 cells) was “approximately 50%”.
